From patent publication US5770617A, “Terbenzimidazoles useful as antifungal agents” (Rutgers, The State University of New Jersey, priority 1997, dated 1998)
Entries after “also recorded” stand apart in the source; their conditions may differ.

Biological target: T1, Aspergillus topoisomerase I (Aspergillus nidulans, UniProt Q5BGS7)
T1 construct: about 105 kDa by phosphate transfer
T1 sequence (Q5BGS7 1-871): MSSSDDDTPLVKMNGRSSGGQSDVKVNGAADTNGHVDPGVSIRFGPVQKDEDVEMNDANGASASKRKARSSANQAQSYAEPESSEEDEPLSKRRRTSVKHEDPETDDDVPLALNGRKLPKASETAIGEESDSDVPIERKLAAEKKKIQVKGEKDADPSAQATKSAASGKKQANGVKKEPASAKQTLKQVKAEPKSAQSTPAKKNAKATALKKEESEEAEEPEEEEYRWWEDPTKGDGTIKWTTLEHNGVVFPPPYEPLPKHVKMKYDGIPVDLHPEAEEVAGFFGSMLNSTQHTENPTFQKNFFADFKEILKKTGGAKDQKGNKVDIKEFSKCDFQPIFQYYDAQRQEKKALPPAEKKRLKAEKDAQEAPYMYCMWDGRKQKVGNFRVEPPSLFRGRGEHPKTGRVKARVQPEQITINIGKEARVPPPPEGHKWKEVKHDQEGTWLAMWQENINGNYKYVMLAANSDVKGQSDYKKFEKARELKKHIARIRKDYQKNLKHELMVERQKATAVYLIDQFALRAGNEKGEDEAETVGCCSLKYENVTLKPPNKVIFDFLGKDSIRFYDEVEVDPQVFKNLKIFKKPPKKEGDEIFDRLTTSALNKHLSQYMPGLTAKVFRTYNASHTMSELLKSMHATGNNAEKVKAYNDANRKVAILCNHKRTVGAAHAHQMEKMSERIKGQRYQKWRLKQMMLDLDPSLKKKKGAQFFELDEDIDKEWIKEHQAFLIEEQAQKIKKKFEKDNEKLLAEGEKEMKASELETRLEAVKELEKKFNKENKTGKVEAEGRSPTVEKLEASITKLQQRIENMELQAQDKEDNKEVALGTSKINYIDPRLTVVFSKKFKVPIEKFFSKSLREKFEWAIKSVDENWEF
Test: Topoisomerase I cleavage assay, Aspergillus enzyme
Assay type: biochemical
Details: for inhibition (poisoning) of Aspergillus topoisomerase I, in words: DNA cleavage assay; for sensitivity of Aspergillus versus human topoisomerase I: cleavage assay, Aspergillus 60 units/reaction, human 150 units/reaction; for concentration at which extensive DNA cleavage was observed: DNA cleavage with Aspergillus topoisomerase I

SMILES | inhibition (poisoning) of Aspergillus topoisomerase I, in words | sensitivity of Aspergillus versus human topoisomerase I | inhibition (poisoning) of Aspergillus topoisomerase I, in words (listed as Ho33342) | concentration at which extensive DNA cleavage was observed [mg/mL] | topoisomerase I-mediated DNA cleavage at the highest concentration (Ho33342 10 mg/ml) | sensitivity of Aspergillus versus human topoisomerase I (listed as CPT)
N#Cc1ccc2[nH]c(-c3ccc4[nH]c(-c5ccc6[nH]cnc6c5)nc4c3)nc2c1 [Compound 11, 5-Cyano-2-[2'-(benzimidazol-5"-yl)benzimidazol-5'-yl]benzimidazole] | strongly inhibited (poisoned); also recorded: sensitive | more active against the Aspergillus than the human enzyme |  |  |  | 
c1ccc(-c2ccc3[nH]c(-c4ccc5[nH]c(-c6ccc7[nH]cnc7c6)nc5c4)nc3c2)cc1 [Compound 13, 5-Phenyl-2-[2'(benzimidazol-5"-yl)benzimidazol-5'-yl]benzimidazole] | strongly inhibited (poisoned); also recorded: sensitive | substantially more sensitive |  |  |  | 
CCOc1ccc(-c2nc3cc(-c4nc5cc(N6CCN(C)CC6)ccc5[nH]4)ccc3[nH]2)cc1 [Hoechst 33342, 2'-(4-ethoxyphenyl)-5-(4-methyl-1-piperazinyl)-2,5'-bi-1H-benzimidazole] |  |  | potent inhibitors; also recorded: selective sensitivity; also recorded: sensitive | ≤ 0.1 | dramatically inhibited | 
CC[C@@]1(O)C(=O)OCc2c1cc1n(c2=O)Cc2cc3ccccc3nc2-1 [camptothecin] | potent inhibitors; also recorded: sensitive | less active against the Aspergillus than the human enzyme |  | ≤ 1.0 |  | less sensitive to CPT than the human enzyme
